In patent publication US20250197372A1 (priority 2020, published 2025):
Where two headings read alike, the source gives them in different places.

Legend:
Format in all cases: biochemical
[1] = biological target: rat maltase (partially purified alpha-glucosidase from intestinal rat powder); assay: Intestinal alpha-glucosidase assay, maltose substrate (Glucose GO Kit)
Experimental: (§1) Intestinal alpha-glucosidases (rat maltase and sucrase): Intestinal alpha-glucosidases act upon 1,4-alpha-glucoside bonds, breaking down disaccharides to glucose. To perform this assay, partially purified alpha-glucosidase from intestinal rat powder was incubated for 60 minutes at 37° C. with multiple dilutions of test compounds. Maltose or Sucrose respectively was then introduced as substrate to the mixture and incubated for 30 minutes at 37° C. The reaction was stopped by a 5-minute incubation at 90° C. and the resultant glucose production is detected using Sigma's Glucose GO Kit. Percent inhibition was then plotted as a function of concentration for each test compound. The IC50 was determined using a 4-PL curve fit and serves as the measure of relative inhibition of each test compound (see Table 3).

[2] = biological target: recombinant human GAA (acid alpha-glucosidase) (Homo sapiens, UniProt P10253); assay: Acid alpha-glucosidase (GAA) assay (4-methylumbelliferyl-alpha-D-pyranoside substrate, fluorescence)
Experimental: Acid alpha-glucosidase (GAA): To analyze inhibitory effects of a test compound, commercially available recombinant human GAA was incubated with multiple dilutions of test compound for 60 minutes at 37° C. 4-methylumbelliferyl-alpha-D-pyranoside was then introduced to the mixture as the substrate. 1,4-methyllumbelliferone is generated, and after an incubation for 20 minutes at 37° C., the reaction was stopped with the stop solution (0.5M glycine 0.3M NaOH pH 10). 1,4-methyllumbelliferone is detected by fluorescence (excitation at 365 nm, emission at 440 nm). Relative fluorescence compared to untreated enzymatic activity and test compound concentration is plotted as a function of percent inhibition. The IC50 is determined using a 4-PL curve fit as the measure of relative inhibitory activity of each test compound (see Table 3).

[3] = biological target: rat sucrase (partially purified alpha-glucosidase from intestinal rat powder) (Rattus norvegicus, UniProt P23739); assay: Intestinal alpha-glucosidase assay, sucrose substrate (Glucose GO Kit)
Experimental: as §1

[4] = biological target: T1, recombinant alpha-glucosidase I (human full-length glucosidase I, Glu 1) (Homo sapiens, UniProt Q13724); assay: Alpha-glucosidase I assay (Amplex Red glucose detection, synthetic trisaccharide substrate)
T1 construct: 6-His (C); made in house; host or cells: HEK-293T cells transduced with BacMam virus (virus raised in Sf9)
T1 sequence (Q13724 1-837): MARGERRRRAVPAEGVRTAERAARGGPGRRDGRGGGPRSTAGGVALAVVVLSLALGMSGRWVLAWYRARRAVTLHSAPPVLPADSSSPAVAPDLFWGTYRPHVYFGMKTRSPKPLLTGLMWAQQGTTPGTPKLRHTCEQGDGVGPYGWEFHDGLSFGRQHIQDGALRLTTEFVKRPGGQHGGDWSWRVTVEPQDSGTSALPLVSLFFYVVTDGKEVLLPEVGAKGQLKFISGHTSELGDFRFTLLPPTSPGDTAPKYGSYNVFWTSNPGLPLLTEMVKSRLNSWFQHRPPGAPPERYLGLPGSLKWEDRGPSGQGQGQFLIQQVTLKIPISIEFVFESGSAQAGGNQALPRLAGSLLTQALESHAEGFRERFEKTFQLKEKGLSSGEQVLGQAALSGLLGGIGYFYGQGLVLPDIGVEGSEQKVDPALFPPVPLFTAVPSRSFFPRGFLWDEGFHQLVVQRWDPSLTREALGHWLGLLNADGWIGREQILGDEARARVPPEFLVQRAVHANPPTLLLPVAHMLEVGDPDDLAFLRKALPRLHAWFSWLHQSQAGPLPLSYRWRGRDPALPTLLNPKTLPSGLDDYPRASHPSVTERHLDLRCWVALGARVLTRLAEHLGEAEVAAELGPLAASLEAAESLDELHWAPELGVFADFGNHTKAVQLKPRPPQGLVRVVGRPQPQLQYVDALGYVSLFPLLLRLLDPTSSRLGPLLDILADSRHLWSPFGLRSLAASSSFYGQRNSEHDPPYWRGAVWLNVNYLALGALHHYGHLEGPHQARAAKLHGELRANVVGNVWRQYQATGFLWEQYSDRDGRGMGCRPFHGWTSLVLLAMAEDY
From the text: Preparation of Human Full-length Glucosidase I: The amino acid sequence for human full-length glucosidase I was obtained from UniProt (Q13724). […] The entry vector was cloned into Kemp Proteins' BacMam Destination vector and transformed into chemically competent DH10Bac E. coli cells to produce recombinant glucosidase I bacmids. Bacmid isolates were obtained following two rounds of blue-white screening and they were transfected into Sf9 cells cultivated in serum-free medium (Thermo Fisher Scientific). Four days post-transfection the culture supernatants containing virus were harvested and filter sterilized. […] A multiplicity of infection (MOI, ratio of virus to cells) of 4 was selected. Soluble glucosidase I was detected by anti-His western blots in the soluble cell extract following extraction with 1% V/V NP40 for 30 minutes at 0° C. Productions and purifications of glucosidase I were carried out at scales ranging from 1-liter to 10-liters. […] In another example production at the 10-liter scale was performed in stirred-tank bioreactors at 27° C. and 80 rpm with dissolved oxygen level at 50% of oxygen in air and pH between 7.0 and 7.2. Cells were transduced at MOI of 4 and the cell pellet was harvested at 48 hours post-transduction using centrifugation.
The pellet from a 10-liter culture was lysed by resuspending the pellet into 1-liter of 50 mM NaH2PO4—H2O+300 mM NaCl+10 mM Imidazole+1 mM PMSF+1% V/V NP40 pH 8. The suspension was incubated on ice for 30 minutes and clarified at 500×g and 4° C. The supernatant was collected and clarified at 20,000×g for 30 minutes at 4° C. and the supernatant was collected and filtered through a 0.2 micron filter. […] The column was washed with 20 column volumes (CV) of 50 mM NaH2PO4-H2O+300 mM NaCl+10 mM Imidazole pH 8 and eluted using a linear gradient of 0-60% 50 mM NaH2PO4-H2O+300 mM NaCl+500 mM Imidazole pH 8 over 90 minutes. at 5 mL per minute. Fractions (25 mL) were collected and analyzed by SDS PAGE and Western Blot (reducing anti-His). Fractions containing purified glucosidase I were pooled and dialyzed into storage buffer (20 mM Tris+300 mM NaCl+50 mM L-arginine+10 mM EDTA+0.01% V/V Tween 80 pH 7.5). The final material was filter sterilized and stored at 4° C. and the working dilution confirmed by a use-test in the indicated assay conditions prior to use.
Alpha-glucosidase I Assay: The assay was performed by incubating recombinant alpha-glucosidase I enzyme with multiple dilutions of test compounds for 60 minutes at 37° C. A synthetic trisaccharide substrate analog was then introduced to the mixture for 90 minutes at 37° C. The reaction was then stopped with 1.5M Tris (pH 8). In the absence of inhibition, the terminal glucose of the substrate was hydrolyzed by the enzyme. The D-glucose product was detected using Amplex Red Glucose/Glucose Oxidase Assay Kit (Invitrogen) following the manufacturer's directions where glucose oxidase reacts with D-glucose to form D-gluconolactone and H2O2 which then reacts with the Amplex Red reagent to generate a red-fluorescent oxidation product (560 nm, excitation; 590 nm, emission). […] Percent inhibition is plotted as a function of concentration for each compound, compared to control reactions. The IC50 was determined using a 4-PL curve fit and serves as a measure of relative inhibitory activity of each test compound (see Table 3).

[5] = Glucosidase 1, read-out: Glu 1 IC50

rat sucrase (partially purified alpha-glucosidase from intestinal rat powder), sequence (P23739 whole entry): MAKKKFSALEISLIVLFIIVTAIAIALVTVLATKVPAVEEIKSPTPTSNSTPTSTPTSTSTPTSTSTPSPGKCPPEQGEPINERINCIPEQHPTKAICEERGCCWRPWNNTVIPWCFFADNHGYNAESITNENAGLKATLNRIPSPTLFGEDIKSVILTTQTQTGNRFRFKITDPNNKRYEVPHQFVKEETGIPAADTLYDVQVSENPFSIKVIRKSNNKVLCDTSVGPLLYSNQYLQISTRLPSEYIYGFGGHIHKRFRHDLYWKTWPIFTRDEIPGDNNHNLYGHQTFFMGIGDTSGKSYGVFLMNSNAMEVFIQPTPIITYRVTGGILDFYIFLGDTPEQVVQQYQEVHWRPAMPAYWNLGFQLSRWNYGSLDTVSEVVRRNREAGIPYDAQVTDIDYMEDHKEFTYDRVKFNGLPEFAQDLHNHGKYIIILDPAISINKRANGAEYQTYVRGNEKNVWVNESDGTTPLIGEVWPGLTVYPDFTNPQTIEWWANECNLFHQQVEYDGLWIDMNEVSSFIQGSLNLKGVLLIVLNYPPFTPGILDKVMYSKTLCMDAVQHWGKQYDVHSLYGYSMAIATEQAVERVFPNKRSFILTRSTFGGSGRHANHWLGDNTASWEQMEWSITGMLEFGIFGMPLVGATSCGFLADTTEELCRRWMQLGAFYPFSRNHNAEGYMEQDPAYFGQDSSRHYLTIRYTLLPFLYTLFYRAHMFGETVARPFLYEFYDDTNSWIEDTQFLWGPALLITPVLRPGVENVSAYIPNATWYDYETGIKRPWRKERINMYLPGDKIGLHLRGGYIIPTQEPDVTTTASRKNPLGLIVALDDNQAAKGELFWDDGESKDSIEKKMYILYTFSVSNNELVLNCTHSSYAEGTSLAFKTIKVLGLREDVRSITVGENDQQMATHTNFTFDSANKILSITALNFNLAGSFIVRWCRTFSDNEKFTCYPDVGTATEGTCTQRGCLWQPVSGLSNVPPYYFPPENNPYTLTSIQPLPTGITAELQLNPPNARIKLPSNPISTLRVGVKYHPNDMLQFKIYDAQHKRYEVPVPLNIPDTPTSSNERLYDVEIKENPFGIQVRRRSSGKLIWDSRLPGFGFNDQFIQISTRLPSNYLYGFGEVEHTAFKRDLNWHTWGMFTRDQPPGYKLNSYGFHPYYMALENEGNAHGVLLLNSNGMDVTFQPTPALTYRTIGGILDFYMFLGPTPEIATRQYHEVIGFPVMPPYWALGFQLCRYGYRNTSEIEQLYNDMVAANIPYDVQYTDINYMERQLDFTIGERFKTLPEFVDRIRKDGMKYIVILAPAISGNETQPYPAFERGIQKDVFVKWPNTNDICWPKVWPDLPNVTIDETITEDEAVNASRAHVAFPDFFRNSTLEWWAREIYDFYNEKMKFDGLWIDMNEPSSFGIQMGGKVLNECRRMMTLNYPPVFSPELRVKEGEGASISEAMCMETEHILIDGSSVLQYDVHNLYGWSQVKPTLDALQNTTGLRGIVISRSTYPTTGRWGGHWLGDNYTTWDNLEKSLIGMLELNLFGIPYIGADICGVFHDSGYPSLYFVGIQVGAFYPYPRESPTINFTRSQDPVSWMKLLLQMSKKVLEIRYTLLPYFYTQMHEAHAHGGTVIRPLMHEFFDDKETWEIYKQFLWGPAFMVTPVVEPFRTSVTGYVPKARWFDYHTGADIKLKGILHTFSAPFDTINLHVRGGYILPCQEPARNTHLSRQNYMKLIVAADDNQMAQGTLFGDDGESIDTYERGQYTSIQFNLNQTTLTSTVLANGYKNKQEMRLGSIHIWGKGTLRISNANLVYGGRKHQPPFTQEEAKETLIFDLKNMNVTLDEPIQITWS

SMILES	IC50 [1] [nM]	IC50 [2] [nM]	IC50 [3] [nM]	IC50 [4, 5] [nM]	IC50 [4] [nM]
O=Cc1cc(NCCCCCCN2C[C@H](O)[C@@H](O)[C@H](O)[C@H]2CO)cc(-c2ncccn2)c1 [Compound 1129, 3-(pyrimidin-2-yl)-5-({6-[(2R,3R,4R,5S)-3,4,5-trihydroxy-2-(hydroxymethyl)piperidin-1-yl]hexyl}amino)benzaldehyde]	5	28	56	148	
CCCc1nc(-c2cc(Cl)cc(NCCc3ccc(CCN4C[C@H](O)[C@@H](O)[C@H](O)[C@H]4CO)cc3)c2)no1 [Compound 1123, (2R,3R,4R,5S)-1-{2-[4-(2-{[3-chloro-5-(5-propyl-1,2,4-oxadiazol-3-yl)phenyl]amino}ethyl)phenyl]ethyl}-2-(hydroxymethyl)piperidine-3,4,5-triol]	440	700	2810	1360	
O=[N+]([O-])c1cc(-c2ccccc2)ccc1NCCCCCCN1C[C@H](O)[C@@H](O)[C@H](O)[C@H]1CO [Compound 1138, (2R,3R,4R,5S)-2-(hydroxymethyl)-1-[6-({3-nitro-[1,1′-biphenyl]-4-yl}amino)hexyl]piperidine-3,4,5-triol]	< 1	< 1	< 1		115
O=[N+]([O-])c1cc(CCO)ccc1NCCCCCCN1C[C@H](O)[C@@H](O)[C@H](O)[C@H]1CO [Compound 1292, (2R,3R,4R,5S)-1-(6-{[4-(2-hydroxyethyl)-2-nitrophenyl]amino}hexyl)-2-(hydroxymethyl)piperidine-3,4,5-triol]	11	28	40		157
[N-]=[N+]=Nc1ccc(NCCc2cc(Br)cc(CCN3C[C@H](O)[C@@H](O)[C@H](O)[C@H]3CO)c2)c([N+](=O)[O-])c1 [Compound 1140, (2R,3R,4R,5S)-1-[2-(3-{2-[(4-azido-2-nitrophenyl)amino]ethyl}-5-bromophenyl)ethyl]-2-(hydroxymethyl)piperidine-3,4,5-triol]	3120	2090	4140	153	
[N-]=[N+]=Nc1ccc(NCc2cc(CCN3C[C@H](O)[C@@H](O)[C@H](O)[C@H]3CO)cs2)c([N+](=O)[O-])c1 [Compound 1174, (2R,3R,4R,5S)-1-[2-(5-{[(4-azido-2-nitrophenyl)amino]methyl}thiophen-3-yl)ethyl]-2-(hydroxymethyl)piperidine-3,4,5-triol]	< 1	230	1	531	
[N-]=[N+]=Nc1ccc(NCCc2cnn(CCN3C[C@H](O)[C@@H](O)[C@H](O)[C@H]3CO)c2)c([N+](=O)[O-])c1 [Compound 1191, (2R,3R,4R,5S)-1-[2-(4-{2-[(4-azido-2-nitrophenyl)amino]ethyl}-1H-pyrazol-1-yl)ethyl]-2-(hydroxymethyl)piperidine-3,4,5-triol]	171	2740	2010	7550	
OC[C@@H]1[C@@H](O)[C@H](O)[C@@H](O)CN1CCCCCCNc1ccc(-c2ncco2)cc1Cl [Compound 1203, (2R,3R,4R,5S)-1-(6-{[2-chloro-4-(1,3-oxazol-2-yl)phenyl]amino}hexyl)-2-(hydroxymethyl)piperidine-3,4,5-triol]	< 1	40	11	3	
COc1cc(-c2cnccn2)ccc1NCCCCCCN1C[C@H](O)[C@@H](O)[C@H](O)[C@H]1CO [Compound 1199, (2R,3R,4R,5S)-2-(hydroxymethyl)-1-(6-{[2-methoxy-4-(pyrazin-2-yl)phenyl]amino}hexyl)piperidine-3,4,5-triol]	8	43	16	77	
[N-]=[N+]=Nc1ccc(NCCn2cc(CCN3C[C@H](O)[C@@H](O)[C@H](O)[C@H]3CO)c3ccccc32)c([N+](=O)[O-])c1 [Compound 1177, (2R,3R,4R,5S)-1-[2-(1-{2-[(4-azido-2-nitrophenyl)amino]ethyl}-1H-indol-3-yl)ethyl]-2-(hydroxymethyl)piperidine-3,4,5-triol]	32	5540	883	374	
Cc1nc2cc(-c3ncccn3)ccc2n1CCCCCCN1C[C@H](O)[C@@H](O)[C@H](O)[C@H]1CO [Compound 1339, (2R,3R,4R,5S)-2-(hydroxymethyl)-1-{6-[2-methyl-5-(pyrimidin-2-yl)-1H-1,3-benzodiazol-1-yl]hexyl}piperidine-3,4,5-triol]	14	240	49		78
COc1cc(Cc2ccccc2)cc(NCCCCCCN2C[C@H](O)[C@@H](O)[C@H](O)[C@H]2CO)c1 [Compound 1145, (2R,3R,4R,5S)-1-{6-[(3-benzyl-5-methoxyphenyl)amino]hexyl}-2-(hydroxymethyl)piperidine-3,4,5-triol]	< 1	60	3	283	
COc1cc(-c2ncco2)ccc1NCCCCCCN1C[C@H](O)[C@@H](O)[C@H](O)[C@H]1CO [Compound 1207, (2R,3R,4R,5S)-2-(hydroxymethyl)-1-(6-{[2-methoxy-4-(1,3-oxazol-2-yl)phenyl]amino}hexyl)piperidine-3,4,5-triol]	7	75	71	118	
